Data published in patent US8618151B2, “Inhibitors of HCV NS5A” (Presidio Pharmaceuticals, Inc., priority 2008, dated 2013).

Tested on: HCV genotype 1b replicon
Experiment: HCV replicon assay (1b_Huh-Luc/Neo-ET cell line, luciferase readout)
Assay type: cell-based
Details: Hepatitis C virus, Huh-7, 72 h, read-out: Inhibition of HCV genotype 1b
Summary of the method: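 1b_Huh-Luc/Neo-ET Huh 7 cells carrying a bicistronic genotype 1b replicon; compounds added in triplicate the day after plating, 72 h incubation, then Bright-Glo luciferase read-out. Signal expressed as % of control; EC50 from curve fit, repeated several times.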

| Compound | EC50 [nM] |
| --- | --- |
| COC(=O)N[C@H](C(=O)N1CCC[C@H]1c1ncc(-c2ccc3cc(-c4ccc5nc([C@@H]6CCCN6C(=O)[C@@H](NC(=O)OC)[C@@H](C)OC)[nH]c5c4)ccc3c2)[nH]1)[C@@H](C)OC [compound 176] | < 1 |
| COC(=O)N[C@H](C(=O)N1CCC[C@H]1c1ncc(-c2ccc3cc(-c4ccc5nc([C@@H]6CCCN6C(=O)[C@@H](c6ccccc6)N(C)C)[nH]c5c4)ccc3c2)[nH]1)C(C)C [compound 177] | < 1 |
| COC(=O)N[C@H](C(=O)N1CCC[C@H]1c1nc2ccc(-c3ccc4cc(-c5cnc([C@@H]6CCCN6C(=O)[C@@H](c6ccccc6)N6CCCC6)[nH]5)ccc4c3)cc2[nH]1)C(C)C [compound 178] | < 1 |
| COC(=O)N[C@H](C(=O)N1CCC[C@H]1c1nc2ccc(-c3ccc4cc(-c5cnc([C@@H]6CCCN6C(=O)[C@H](NC(=O)OC)c6ccccc6)[nH]5)ccc4c3)cc2[nH]1)C(C)C [compound 179] | < 1 |
| COC(=O)N[C@H](C(=O)N1CCC[C@H]1c1ncc(-c2ccc3cc(-c4ccc5nc([C@@H]6CCCN6C(=O)[C@@H](c6ccccc6)N6CCCC6)[nH]c5c4)ccc3c2)[nH]1)C(C)C [compound 180] | < 1 |
| COC(=O)N[C@H](C(=O)N1CCC[C@H]1c1ncc(-c2ccc3cc(-c4ccc5nc([C@@H]6CCCN6C(=O)[C@H](NC(=O)OC)c6ccccc6)[nH]c5c4)ccc3c2)[nH]1)C(C)C [compound 181] | < 1 |
| COC(=O)N[C@H](C(=O)N1CCC[C@H]1c1nc2ccc(-c3ccc4cc(-c5cnc([C@@H]6CCCN6C(=O)[C@@H](c6ccccc6)N(C)C)[nH]5)ccc4c3)cc2[nH]1)C(C)C [compound 182] | < 1 |
| COC(=O)N[C@H](C(=O)N1CCC[C@H]1c1nc2ccc(-c3ccc4cc(-c5cnc([C@@H]6CCCN6C(=O)[C@H](NC(=O)N6CC[C@H](O)C6)c6ccccc6)[nH]5)ccc4c3)cc2[nH]1)C(C)C [compound 183] | < 1 |
| COC(=O)N[C@H](C(=O)N1CCC[C@H]1c1ncc(-c2ccc3cc(-c4ccc5nc([C@@H]6CCCN6C(=O)[C@H](NC(=O)N6CC[C@H](O)C6)c6ccccc6)[nH]c5c4)ccc3c2)[nH]1)C(C)C [compound 185] | < 1 |
| CNC(=O)N[C@@H](C(=O)N1CCC[C@H]1c1ncc(-c2ccc3cc(-c4ccc5nc([C@@H]6CCCN6C(=O)[C@@H](NC(=O)OC)C(C)C)[nH]c5c4)ccc3c2)[nH]1)c1ccccc1 [compound 186] | < 1 |
| COC(=O)N[C@H](C(=O)N1CCC[C@H]1c1ncc(-c2cnc3cc(-c4ccc5nc([C@@H]6CCCN6C(=O)[C@@H](NC(=O)OC)C(C)C)[nH]c5c4)ccc3c2)[nH]1)C(C)C [compound 187] | < 1 |
| COC(=O)N[C@H](C(=O)N1CCC[C@H]1c1ncc(-c2cnc3cc(-c4ccc5nc([C@@H]6CCCN6C(=O)[C@H](NC(=O)OC)c6ccccc6)[nH]c5c4)ccc3c2)[nH]1)C(C)C [compound 188] | 1 to 9.9 |
| COC(=O)N[C@H](C(=O)N1CCC[C@H]1c1ncc(-c2ccc3cc(-c4ccc5nc([C@@H]6CCCN6C(=O)[C@@H](NC(=O)OC)C6CCOCC6)[nH]c5c4)ccc3c2)[nH]1)C(C)C [compound 189] | < 1 |
| COC(=O)N[C@H](C(=O)N1CCC[C@H]1c1nc2ccc(-c3ccc4cc(-c5cnc([C@@H]6CCCN6C(=O)[C@@H](NC(=O)OC)C6CCOCC6)[nH]5)ccc4c3)cc2[nH]1)C(C)C [compound 190] | < 1 |
| COC(=O)N[C@H](C(=O)N1CCC[C@H]1c1nc2ccc(-c3ccc4cc(-c5cnc([C@@H]6CCCN6C(=O)[C@@H](NC(=O)OC)C6CCOCC6)[nH]5)cnc4c3)cc2[nH]1)C(C)C [compound 191] | < 1 |
| COC(=O)N[C@H](C(=O)N1CCC[C@H]1c1ncc(-c2cnc3cc(-c4ccc5nc([C@@H]6CCCN6C(=O)[C@@H](NC(=O)OC)C6CCOCC6)[nH]c5c4)ccc3c2)[nH]1)C(C)C [compound 192] | < 1 |
| COC(=O)N[C@H](C(=O)N1CCC[C@H]1c1ncc(-c2ccc3nc(-c4ccc5nc([C@@H]6CCCN6C(=O)[C@@H](NC(=O)OC)C(C)C)[nH]c5c4)ccc3c2)[nH]1)C(C)C [compound 193] | < 1 |
| COC(=O)N[C@H](C(=O)N1CCC[C@H]1c1nc2ccc(-c3ccc4cc(-c5cnc([C@@H]6CCCN6C(=O)[C@@H](NC(=O)OC)C6CCOCC6)[nH]5)ccc4n3)cc2[nH]1)C(C)C [compound 194] | < 1 |
| COC(=O)N[C@H](C(=O)N1CCC[C@H]1c1nc2ccc(-c3ccc4cc(-c5cnc([C@@H]6CCCN6C(=O)[C@H](NC(=O)OC)c6ccccc6)[nH]5)cnc4c3)cc2[nH]1)C(C)C [compound 195] | < 1 |
| COC(=O)N[C@H](C(=O)N1CCC[C@H]1c1nc2ccc(-c3ccc4cc(-c5cnc([C@@H]6CCCN6C(=O)[C@H](NC(=O)OC)c6ccccc6)[nH]5)ccc4n3)cc2[nH]1)C(C)C [compound 196] | < 1 |
| COC(=O)N[C@H](C(=O)N1CCC[C@H]1c1ncc(-c2ccc3nc(-c4ccc5nc([C@@H]6CCCN6C(=O)[C@H](NC(=O)OC)c6ccccc6)[nH]c5c4)ccc3c2)[nH]1)C(C)C [compound 197] | < 1 |

| Compound | EC50 [nM] |
| --- | --- |
| COC(=O)N[C@H](C(=O)N1CCC[C@H]1c1ncc(-c2ccc3cc(-c4ccc5nc([C@@H]6CCCN6C(=O)[C@@H](NC(=O)OC)C(C)C)[nH]c5n4)ccc3c2)[nH]1)C(C)C [compound 198] | < 1 |
| COC(=O)N[C@H](C(=O)N1CCC[C@H]1c1ncc(-c2ccc3cc(-c4ccc5nc([C@@H]6CCCN6C(=O)[C@H](NC(=O)OC)c6ccccc6)[nH]c5n4)ccc3c2)[nH]1)C(C)C [compound 199] | < 1 |
| COC(=O)N[C@H](C(=O)N1CCC[C@H]1c1nc2ccc(-c3ccc4cc(-c5cnc([C@@H]6CCCN6C(=O)[C@H](NC(=O)OC)c6ccccc6)[nH]5)ccc4c3)nc2[nH]1)C(C)C [compound 200] | < 1 |
| COC(=O)N[C@H](C(=O)N1CCC[C@H]1c1nc2ccc(-c3ccc4cc(-c5cnc([C@@H]6CCCN6C(=O)[C@@H](NC(=O)OC)C6CCOCC6)[nH]5)ccc4c3)nc2[nH]1)C(C)C [compound 201] | < 1 |
| COC(=O)N[C@H](C(=O)N1CCC[C@H]1c1ncc(-c2ccc3cc(-c4ccc5nc([C@@H]6CCCN6C(=O)[C@@H](NC(=O)OC)C6CCOCC6)[nH]c5n4)ccc3c2)[nH]1)C(C)C [compound 202] | < 1 |
| COC(=O)N[C@H](C(=O)N1CCC[C@H]1c1ncc(-c2ccc3cc(-c4ccc5nc([C@@H]6CCCN6C(=O)[C@@H](NC(=O)OC)C6CCOCC6)[nH]c5c4)ccc3c2)[nH]1)C1CCOCC1 [compound 203] | < 1 |
| COC(=O)N[C@H](C(=O)N1CCC[C@H]1c1ncc(-c2ccc3cc(-c4ccc5nc([C@@H]6CCCN6C(=O)[C@@H](NC(=O)OC)C(C)C)[nH]c5c4)ncc3c2)[nH]1)C(C)C [compound 204] | < 1 |
| COC(=O)N[C@H](C(=O)N1CCC[C@H]1c1ncc(-c2ccc3cc(-c4ccc5nc([C@@H]6CCCN6C(=O)[C@@H](NC(=O)OC)C6CCOCC6)[nH]c5n4)ccc3c2)[nH]1)C1CCOCC1 [compound 205] | < 1 |
| COC(=O)N[C@H](C(=O)N1CCC[C@H]1c1ncc(-c2ccc3nc(-c4ccc5nc([C@@H]6CCCN6C(=O)[C@@H](NC(=O)OC)C6CCOCC6)[nH]c5c4)ccc3c2)[nH]1)C1CCOCC1 [compound 206] | 1 to 9.9 |
| COC(=O)N[C@H](C(=O)N1CCC[C@H]1c1ncc(-c2cccc3c(-c4ccc5nc([C@@H]6CCCN6C(=O)[C@@H](NC(=O)OC)C(C)C)[nH]c5c4)cccc23)[nH]1)C(C)C [compound 207] | < 1 |
| COC(=O)N[C@H](C(=O)N1CCC[C@H]1c1nc2ccc(-c3cccc4c(-c5cnc([C@@H]6CCCN6C(=O)[C@H](NC(=O)OC)c6ccccc6)[nH]5)cccc34)cc2[nH]1)C(C)C [compound 208] | < 1 |
| COC(=O)N[C@H](C(=O)N1CCC[C@H]1c1ncc(-c2ccc3cc(-c4ccc5nc([C@@H]6CCCN6C(=O)[C@@H](NC(=O)OC)C(C)C)[nH]c5c4)ccc3n2)[nH]1)C(C)C [compound 209] | < 1 |
| COC(=O)N[C@H](C(=O)N1CCC[C@H]1c1nc2ccc(-c3ccc4nc(-c5cnc([C@@H]6CCCN6C(=O)[C@H](NC(=O)OC)c6ccccc6)[nH]5)ccc4c3)cc2[nH]1)C(C)C [compound 210] | < 1 |
| COC(=O)N[C@H](C(=O)N1CCC[C@H]1c1nc2ccc(-c3ccc4nc(-c5cnc([C@@H]6CCCN6C(=O)[C@@H](NC(=O)OC)C6CCOCC6)[nH]5)ccc4c3)cc2[nH]1)C(C)C [compound 211] | < 1 |
| COC(=O)N[C@H](C(=O)N1CCC[C@H]1c1nc2ccc(-c3ccc4cc(-c5cnc([C@@H]6CCCN6C(=O)[C@H](NC(=O)OC)c6ccccc6)[nH]5)ccc4c3)cc2[nH]1)C1CCOCC1 [compound 212] | < 1 |
| COC(=O)N[C@H](C(=O)N1CCC[C@H]1c1ncc(-c2ccc3cc(-c4ccc5nc([C@@H]6CCCN6C(=O)[C@@H](c6ccccc6)N6CCOCC6)[nH]c5c4)ccc3c2)[nH]1)C(C)C [compound 213] | < 1 |
| COC(=O)N[C@H](C(=O)N1CCC[C@H]1c1ncc(-c2ccc3c(-c4ccc5[nH]c([C@@H]6CCCN6C(=O)[C@@H](NC(=O)OC)C(C)C)nc5c4)cccc3c2)[nH]1)C(C)C [compound 214] | 10 to 999 |
| COC(=O)N[C@H](C(=O)N1CCC[C@H]1c1nc2ccc(-c3cccc4c(-c5cnc([C@@H]6CCCN6C(=O)[C@@H](NC(=O)OC)C6CCOCC6)[nH]5)cccc34)cc2[nH]1)C(C)C [compound 215] | < 1 |
| COC(=O)N[C@H](C(=O)N1CCC[C@H]1c1nc2ccc(-c3cc4ccc(-c5cnc([C@@H]6CCCN6C(=O)[C@@H](NC(=O)OC)C6CCOCC6)[nH]5)cc4cn3)cc2[nH]1)C(C)C [compound 216] | < 1 |
| COC(=O)N[C@H](C(=O)N1CCC[C@H]1c1ncc(-c2ccc3cc(-c4ccc5nc([C@@H]6CCCN6C(=O)[C@@H](NC(=O)OC)C6CCOCC6)[nH]c5c4)ncc3c2)[nH]1)C1CCOCC1 [compound 217] | 1 to 9.9 |
| COC(=O)N[C@H](C(=O)N1CCC[C@H]1c1ncc(-c2ccc3cc(-c4ccc5nc([C@@H]6CCCN6C(=O)[C@@H](NC(=O)OC)C6CCCC6)[nH]c5c4)ccc3c2)[nH]1)C1CCCC1 [compound 218] | < 1 |
